According to US20240051958A1, “DIACYLGLYCEROL KINASE (DGK) ALPHA INHIBITORS AND USES THEREOF” (priority 2022, published 2024):
pIC50: −log10 of the molar value.

Columns and labels:
[1] = system: Human Pan T cells; assay: IL-2 Release Detection Assay; type: cell-based; conditions: for Activation fold: Top activation/DMSO control; for Activation % at 100 nM: fitted curve at 100 nM/DMSO control*100%
Description: Add dilutions of compounds into the cells and incubate at 37° C. &5% CO2 for 24 hours. IL-2 in cell supernatant was detected by ELISA Kit (R&D, DY202). […] Top and Bottom: Plateaus in same units as Y. LogEC50: same log units as X. Activation fold: Top activation/DMSO control. Activation % at 100 nM: Activation of non-linear regression equation curve at the concentration of 100 nM/DMSO control*100%.

[2] = target: DGKA (Homo sapiens (Human), UniProt P23743); assay: DGKA Inhibition ADP-Glo Assay; type: biochemical; conditions: 40 μM ATP, 200 μM DLG in substrate working solution, 25° C., 60 min
Sequence of DGKA (P23743 whole entry): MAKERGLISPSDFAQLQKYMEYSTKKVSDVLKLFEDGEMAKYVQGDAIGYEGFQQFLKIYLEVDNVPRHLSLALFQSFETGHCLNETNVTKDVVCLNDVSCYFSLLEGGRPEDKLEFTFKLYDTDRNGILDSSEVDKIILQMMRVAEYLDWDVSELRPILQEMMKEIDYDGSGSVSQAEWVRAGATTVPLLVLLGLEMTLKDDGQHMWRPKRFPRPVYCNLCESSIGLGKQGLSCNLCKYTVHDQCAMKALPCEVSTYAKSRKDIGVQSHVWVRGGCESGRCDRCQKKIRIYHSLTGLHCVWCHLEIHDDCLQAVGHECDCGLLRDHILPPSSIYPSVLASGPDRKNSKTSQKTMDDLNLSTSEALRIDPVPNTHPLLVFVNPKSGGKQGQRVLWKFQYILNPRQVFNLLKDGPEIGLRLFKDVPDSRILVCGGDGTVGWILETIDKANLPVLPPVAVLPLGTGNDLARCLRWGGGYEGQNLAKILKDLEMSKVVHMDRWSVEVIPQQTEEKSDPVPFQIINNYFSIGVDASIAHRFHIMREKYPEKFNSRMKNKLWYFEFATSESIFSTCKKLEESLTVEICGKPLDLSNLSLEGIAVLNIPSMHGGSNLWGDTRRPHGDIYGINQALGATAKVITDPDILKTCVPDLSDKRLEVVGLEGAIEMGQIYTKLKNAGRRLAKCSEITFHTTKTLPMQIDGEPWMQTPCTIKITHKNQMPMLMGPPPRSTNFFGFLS
Description: The DGKA inhibition reactions were performed using ADP-Glo assay. The reactions were carried out in 50 mM HEPES, 100 mM NaCl, 10 mM MgCl2, 1 mM CaCl2, 0.005% TritonX-100 and 1 mM DTT as working solution (pH=7.5). 30 nL DMSO solution of each test compound (Top concentration 0.4 μM with 10 point, 4-fold dilution series for each compound) were transferred to 384 well plate by Echo and 5 μL DGKA (SignalChem, D21-10BG) enzyme working solution at 2×final reaction concentration was added to each well. After incubated at 25° C. for 15 minutes, 5 μL substrate working solution contain 40 μM ATP (Promega, V915B) and 200 μM DLG (SignalChem, D430-59) were added to initiate reaction. After enzymatic reaction at 25° C. for 60 min, ADP Glo assay reagents (Promega, V9102) were added and luminescence was recorded using an EnVision following the instruction of manual. […] The IC50 value was calculated via a regression analysis of the inhibition rate.

Row | Compound | Activation fold [1] | Activation % at 100 nM [1] | pIC50 [2]
1 | Cc1ccc2oc(C3CCN(c4cc(=O)n(C)c5ccc(Cl)cc45)CC3)nc2c1 [Example 2, 6-chloro-1-methyl-4-(4-(5-methylbenzo[d]oxazol-2-yl)piperidin-1-yl)quinolin-2(1H)-one] | 5.3 | 234% | 9.33
2 | Cc1ccc2oc(C3CCN(c4cc(=O)n(C)c5ccc(C#N)cc45)CC3)nc2c1 [Example 3, 1-methyl-4-(4-(5-methylbenzo[d]oxazol-2-yl)piperidin-1-yl)-2-oxo-1,2-dihydroquinoline-6-carbonitrile] | 7.8 | 370% | 8.63
3 | Cc1ccc2oc(C3CCN(c4nc(=O)n(C)c5ccc(Cl)cc45)CC3)nc2c1 [Example 4, 6-chloro-1-methyl-4-(4-(5-methylbenzo[d]oxazol-2-yl)piperidin-1-yl)quinazolin-2(1H)-one] | 3.5 | 211% | 8.35
4 | Cc1ccc2oc(C3CCN(c4nc(=O)n(C)c5ccc(C#N)cc45)CC3)nc2c1 [Example 5, 1-methyl-4-(4-(5-methylbenzo[d]oxazol-2-yl)piperidin-1-yl)-2-oxo-1,2-dihydroquinazoline-6-carbonitrile] | – | – | 6.99
5 | Cc1ccc2oc(C3CCN(c4cc(=O)n(C)c5ccc(F)cc45)CC3)nc2c1 [Example 6, 6-fluoro-1-methyl-4-(4-(5-methylbenzo[d]oxazol-2-yl)piperidin-1-yl)quinolin-2(1H)-one] | – | – | 8.91
6 | Cc1ccc2oc(C3CCN(c4nc(=O)n(C)c5ccc(F)cc45)CC3)nc2c1 [Example 7, 6-fluoro-1-methyl-4-(4-(5-methylbenzo[d]oxazol-2-yl)piperidin-1-yl)quinazolin-2(1H)-one] | – | – | 7.80
7 | Cc1ccc2oc(N3[C@@H]4CC[C@H]3CN(c3c(C#N)c(=O)n(C)c5ccc(F)cc35)C4)nc2c1 [Example 8, 6-fluoro-1-methyl-4-((1R,5S)-8-(5-methylbenzo[d]oxazol-2-yl)-3,8-diazabicyclo[3.2.1]octan-3-yl)-2-oxo-1,2-dihydroquinoline-3-carbonitrile] | – | – | 8.11
8 | Cc1ccc2oc(C3CCN(c4c(C#N)c(=O)n(C)c5ccc(Cl)nc45)CC3)nc2c1 [Example 9, 6-chloro-1-methyl-4-(4-(5-methylbenzo[d]oxazol-2-yl)piperidin-1-yl)-2-oxo-1,2-dihydro-1,5-naphthyridine-3-carbonitrile] | 7.7 | 206% | 8.69
9 | Cc1ccc2oc(C3CCN(c4cc(=O)n(C)c5ccc(Cl)nc45)CC3)nc2c1 [Example 10, 6-chloro-1-methyl-4-(4-(5-methylbenzo[d]oxazol-2-yl)piperidin-1-yl)-1,5-naphthyridin-2(1H)-one] | 7.3 | 143% | 9.44
10 | Cn1c(=O)cc(N2CCC(c3nc4cc(F)ccc4o3)CC2)c2nc(Cl)ccc21 [Example 11, 6-chloro-4-(4-(5-fluorobenzo[d]oxazol-2-yl)piperidin-1-yl)-1-methyl-1,5-naphthyridin-2(1H)-one] | 6.1 | 169% | 9.18
11 | Cc1ccc2oc(C3CCN(c4nc(=O)n(C)c5ccc(Cl)nc45)CC3)nc2c1 [Example 13, 6-chloro-1-methyl-4-(4-(5-methylbenzo[d]oxazol-2-yl)piperidin-1-yl)pyrido[3,2-d]pyrimidin-2(1H)-one] | – | – | 8.39
12 | Cc1ccc2oc(C3CCN(c4nc(=O)n(C)c5ccc(C#N)nc45)CC3)nc2c1 [Example 14, 1-methyl-4-(4-(5-methylbenzo[d]oxazol-2-yl)piperidin-1-yl)-2-oxo-1,2-dihydropyrido[3,2-d]pyrimidine-6-carbonitrile] | – | – | 6.84
13 | COCCOc1cc2c(nc1Cl)c(N1CCC(c3nc4cc(C)ccc4o3)CC1)cc(=O)n2C [Example 15, 6-chloro-7-(2-methoxyethoxy)-1-methyl-4-(4-(5-methylbenzo[d]oxazol-2-yl)piperidin-1-yl)-1,5-naphthyridin-2(1H)-one] | 6.5 | 214% | 9.72
14 | COCCOc1cc2c(nc1C#N)c(N1CCC(c3nc4cc(C)ccc4o3)CC1)cc(=O)n2C [Example 16, 3-(2-methoxyethoxy)-5-methyl-8-(4-(5-methylbenzo[d]oxazol-2-yl)piperidin-1-yl)-6-oxo-5,6-dihydro-1,5-naphthyridine-2-carbonitrile] | 6.29 | 253% | 9.46
15 | Cc1ccc2oc(C3CCN(c4cc(=O)n(C)c5cc(NCCO)c(Cl)nc45)CC3)nc2c1 [Example 17, 6-chloro-7-((2-hydroxyethyl)amino)-1-methyl-4-(4-(5-methylbenzo[d]oxazol-2-yl)piperidin-1-yl)-1,5-naphthyridin-2(1H)-one] | 8.2 | 159% | 9.92
16 | Cc1ccc2oc(C3CCN(c4cc(=O)n(C)c5cc(NCCO)c(C#N)nc45)CC3)nc2c1 [Example 18, 3-((2-hydroxyethyl)amino)-5-methyl-8-(4-(5-methylbenzo[d]oxazol-2-yl)piperidin-1-yl)-6-oxo-5,6-dihydro-1,5-naphthyridine-2-carbonitrile] | 6.9 | 355% | 10.00
17 | Cc1ccc2oc(C3CCN(c4cc(=O)n(C)c5cc(NCCO)cnc45)CC3)nc2c1 [Example 19, 7-((2-hydroxyethyl)amino)-1-methyl-4-(4-(5-methylbenzo[d]oxazol-2-yl)piperidin-1-yl)-1,5-naphthyridin-2(1H)-one] | – | – | 8.63
18 | Cc1ccc2oc(C3CCN(c4cc(=O)n(C)c5cc(OC6CCOC6)c(Cl)nc45)CC3)nc2c1 (stereo not drawn) [Example 20, 6-chloro-1-methyl-4-(4-(5-methylbenzo[d]oxazol-2-yl)piperidin-1-yl)-7-((tetrahydrofuran-3-yl)oxy)-1,5-naphthyridin-2(1H)-one] | – | – | 9.89
19 | Cc1ccc2oc(C3CCN(c4cc(=O)n(C)c5cc(OC6CCOC6)c(C#N)nc45)CC3)nc2c1 (stereo not drawn) [Example 21, 5-methyl-8-(4-(5-methylbenzo[d]oxazol-2-yl)piperidin-1-yl)-6-oxo-3-((tetrahydrofuran-3-yl)oxy)-5,6-dihydro-1,5-naphthyridine-2-carbonitrile] | 10.1 | 520% | 9.64
20 | Cc1ccc2oc(C3CCN(c4cc(=O)n(C)c5cc(OCCO)c(Cl)nc45)CC3)nc2c1 [Example 22, 6-chloro-7-(2-hydroxyethoxy)-1-methyl-4-(4-(5-methylbenzo[d]oxazol-2-yl)piperidin-1-yl)-1,5-naphthyridin-2(1H)-one] | – | – | 9.82
21 | Cc1ccc2oc(C3CCN(c4cc(=O)n(C)c5cc(OCCCO)c(C#N)nc45)CC3)nc2c1 [Example 24, 3-(3-hydroxypropoxy)-5-methyl-8-(4-(5-methylbenzo[d]oxazol-2-yl)piperidin-1-yl)-6-oxo-5,6-dihydro-1,5-naphthyridine-2-carbonitrile] | 25.6 | 679% | 9.51
22 | Cc1ccc2oc(C3CCN(c4cc(=O)n(C)c5cc(OC6CCOCC6)c(C#N)nc45)CC3)nc2c1 [Example 25, 5-methyl-8-(4-(5-methylbenzo[d]oxazol-2-yl)piperidin-1-yl)-6-oxo-3-((tetrahydro-2H-pyran-4-yl)oxy)-5,6-dihydro-1,5-naphthyridine-2-carbonitrile] | – | – | 8.28
23 | Cc1ccc2oc(C3CCN(c4cc(=O)n(C)c5cc(OCCN)c(C#N)nc45)CC3)nc2c1 [Example 26, 3-(2-aminoethoxy)-5-methyl-8-(4-(5-methylbenzo[d]oxazol-2-yl)piperidin-1-yl)-6-oxo-5,6-dihydro-1,5-naphthyridine-2-carbonitrile] | – | – | 8.48
24 | Cc1ccc2oc(C3CCN(c4cc(=O)n(C)c5cc(OC6CCNC6)c(C#N)nc45)CC3)nc2c1 (stereo not drawn) [Example 27, 5-methyl-8-(4-(5-methylbenzo[d]oxazol-2-yl)piperidin-1-yl)-6-oxo-3-(pyrrolidin-3-yloxy)-5,6-dihydro-1,5-naphthyridine-2-carbonitrile] | – | – | 7.87
25 | Cc1ccc2oc(C3CCN(c4cc(=O)n(C)c5cc(O[C@H]6CCOC6)c(C#N)nc45)CC3)nc2c1 [Example 29, (S)-5-methyl-8-(4-(5-methylbenzo[d]oxazol-2-yl)piperidin-1-yl)-6-oxo-3-((tetrahydrofuran-3-yl)oxy)-5,6-dihydro-1,5-naphthyridine-2-carbonitrile] | 8.5 | 292% | 9.15
26 | Cc1ccc2oc(N3CC=C(c4cc(=O)n(C)c5cc(OCCO)c(C#N)nc45)CC3)nc2c1 [Example 30, 3-(2-hydroxyethoxy)-5-methyl-8-(1-(5-methylbenzo[d]oxazol-2-yl)-1,2,3,6-tetrahydropyridin-4-yl)-6-oxo-5,6-dihydro-1,5-naphthyridine-2-carbonitrile] | 11.0 | 244% | 9.19
